{"source": "patent US7622634B2", "about": "(priority 2001, dated 2009)", "key": {"HmPDR1": {"tested_on": "HmPDR1", "test": "Quantitative RT-PCR of HmPDR1 expression in hairy roots", "type": "cell-based, Hyoscyamus muticus", "settings": "1 mM CdCl2, H2O as a control", "procedure": "FIG. 3: HmPDR1 expression is induced by CdCl2. Quantitative RT-PCR analysis of HmPDR1 in total RNA from H. muticus hairy roots treated with 1 mM CdCl2 or H2O as a control. Ethidium bromide-stained rRNA is used as a control. The fold increase in the ratio of HmPDR1 transcript to rRNA fluorescence, relative to the value at time point zero, is given below the panels. Time after elicitation is indicated in hours.\nTo confirm the postulated relationship between the expression of ABC transporter genes and the CdCl2 induced release of alkaloids we performed an expression analysis of the HmPDR1 gene in CdCl2 treated Hyoscyamus hairy roots (FIG. 3)."}, "[1]": {"tested_on": "BY-2 cells transformed with pK7WGD2-ScPDR5-US50", "test": "Hyoscyamine-induced cell death (Evans blue) in the ScPDR5-US50 line", "type": "cell-based, Nicotiana tabacum", "settings": "30 mM hyoscyamine, US50 lines compared to GUS control line", "procedure": "FIG. 2: Hyoscyamine-induced cell death in transformed BY-2 cells. […] Cell death was assayed at two time points (6 hours and 24 hours) by Evans blue staining and is indicated as the fold increase in optical density at OD600 relative to the value at the start of the experiment. Values are the mean of three independent experiments. GUS, US50, W303 and AT represent BY-2 cell lines transformed with pK7WGD2-GUS, pK7WGD2-ScPDR5-US50, pK7WGD2-ScPDR5-W303 and pK7WGD2-AtPDR1 respectively."}, "wild type yeast": {"tested_on": "wild type yeast", "settings": "YPD plates, growth evaluated after two days at 28° C."}, "Wild type BY-2 cells": {"tested_on": "Wild type BY-2 cells", "settings": "MSST plates, growth evaluated after 15 days at 26° C."}, "tobacco BY-2 cells": {"tested_on": "tobacco BY-2 cells", "settings": "Nicotiana tabacum"}, "[2]": {"tested_on": "BY-2 cell lines expressing the different yeast Pdr5 transporters", "settings": "compared to the control GUS-expressing lines"}, "[3]": {"tested_on": "yeast AD3 strain expressing AtPDR1", "settings": "YPD plates containing the alkaloid"}, "[4]": {"tested_on": "Transgenic BY-2 cells expressing AtPDR1", "settings": "compared to the control GUS expressing line"}, "Pdr5p": {"target": "Pdr5p (Saccharomyces cerevisiae, UniProt P33302)", "sequence (P33302 whole entry)": "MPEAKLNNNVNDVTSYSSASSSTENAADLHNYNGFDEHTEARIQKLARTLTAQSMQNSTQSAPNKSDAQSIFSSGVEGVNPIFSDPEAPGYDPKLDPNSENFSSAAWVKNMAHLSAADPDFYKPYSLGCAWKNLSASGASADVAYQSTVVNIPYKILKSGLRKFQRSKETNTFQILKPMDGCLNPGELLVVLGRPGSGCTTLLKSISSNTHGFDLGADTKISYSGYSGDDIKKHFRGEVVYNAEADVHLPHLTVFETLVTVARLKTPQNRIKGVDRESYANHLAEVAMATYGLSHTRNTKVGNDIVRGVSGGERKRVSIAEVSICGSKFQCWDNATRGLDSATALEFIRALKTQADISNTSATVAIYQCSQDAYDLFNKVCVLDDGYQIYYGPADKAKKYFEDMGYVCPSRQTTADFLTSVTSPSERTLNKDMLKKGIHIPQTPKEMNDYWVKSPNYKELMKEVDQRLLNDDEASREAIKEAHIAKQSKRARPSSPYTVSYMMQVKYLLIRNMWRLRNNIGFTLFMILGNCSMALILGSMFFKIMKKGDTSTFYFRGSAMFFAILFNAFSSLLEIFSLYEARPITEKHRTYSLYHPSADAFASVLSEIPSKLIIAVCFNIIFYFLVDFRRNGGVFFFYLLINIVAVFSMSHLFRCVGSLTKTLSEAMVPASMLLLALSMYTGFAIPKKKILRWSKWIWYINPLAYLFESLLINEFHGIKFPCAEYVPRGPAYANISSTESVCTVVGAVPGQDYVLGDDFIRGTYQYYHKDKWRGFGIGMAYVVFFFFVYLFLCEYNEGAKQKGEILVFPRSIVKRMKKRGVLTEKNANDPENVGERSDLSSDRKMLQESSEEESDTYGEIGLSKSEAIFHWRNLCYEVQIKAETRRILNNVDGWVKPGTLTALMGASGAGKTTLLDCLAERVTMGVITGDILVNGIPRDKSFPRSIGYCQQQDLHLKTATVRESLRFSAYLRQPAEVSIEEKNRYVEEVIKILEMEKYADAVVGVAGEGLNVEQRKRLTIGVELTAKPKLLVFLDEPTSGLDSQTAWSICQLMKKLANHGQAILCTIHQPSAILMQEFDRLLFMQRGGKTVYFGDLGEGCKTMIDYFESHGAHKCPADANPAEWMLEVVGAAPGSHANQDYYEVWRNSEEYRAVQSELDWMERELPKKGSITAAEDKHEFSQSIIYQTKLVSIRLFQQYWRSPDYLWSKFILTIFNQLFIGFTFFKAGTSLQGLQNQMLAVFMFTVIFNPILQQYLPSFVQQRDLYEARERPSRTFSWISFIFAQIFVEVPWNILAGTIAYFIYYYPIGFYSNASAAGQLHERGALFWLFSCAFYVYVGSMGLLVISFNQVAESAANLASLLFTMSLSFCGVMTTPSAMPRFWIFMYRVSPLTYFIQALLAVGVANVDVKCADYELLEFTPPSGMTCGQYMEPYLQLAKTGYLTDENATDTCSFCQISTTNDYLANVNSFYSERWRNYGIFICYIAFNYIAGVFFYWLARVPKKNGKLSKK", "settings": "Kolaczkowski et al. 1996, 1998; cited from earlier work"}}}
{"smiles": "[Cl][Cd][Cl]", "note": "[CdCl2]", "values": [{"measurement": "HmPDR1 expression", "setting": "HmPDR1", "result": "upregulated"}]}
{"smiles": "CN1[C@@H]2CC[C@H]1C[C@@H](OC(=O)[C@H](CO)c1ccccc1)C2", "note": "[hyoscyamine]", "values": [{"measurement": "decrease in hyoscyamine induced cell death", "setting": "[1]", "result": 15, "unit": "%"}, {"measurement": "level tolerated by wild type yeast", "setting": "wild type yeast", "result": 50, "unit": "mM"}, {"measurement": "level tolerated without severe growth problems", "setting": "Wild type BY-2 cells", "result": 30000, "unit": "µM"}, {"measurement": "level causing the death of all suspension cultured tobacco cells", "setting": "tobacco BY-2 cells", "result": 50000, "unit": "µM"}]}
{"smiles": "CN1CCCC1c1cccnc1", "note": "(stereo not drawn) [nicotine]", "values": [{"measurement": "level tolerated by wild type yeast", "setting": "wild type yeast", "result": 15, "unit": "mM"}, {"measurement": "level tolerated without severe growth problems", "setting": "Wild type BY-2 cells", "result": 3000, "unit": "µM"}, {"measurement": "level causing the death of all suspension cultured tobacco cells", "setting": "tobacco BY-2 cells", "result": 20000, "unit": "µM"}, {"measurement": "tolerance in growth performance assay", "setting": "[2]", "result": "increased tolerance"}, {"measurement": "growth of the pdr5 mutant strain expressing AtPDR1 on the alkaloid", "setting": "[3]", "result": "restore the growth"}, {"measurement": "tolerance of AtPDR1 transgenic BY-2 cells", "setting": "[4]", "result": "enhanced tolerance"}]}
{"smiles": "CN1[C@@H]2C[C@@H](OC(=O)[C@H](CO)c3ccccc3)C[C@H]1[C@@H]1O[C@@H]12", "note": "[scopolamine]", "values": [{"measurement": "level tolerated by wild type yeast", "setting": "wild type yeast", "result": 100, "unit": "mM"}]}
{"smiles": "CC(=O)O[C@H]1C(=O)[C@@]2(C)[C@H]([C@H](OC(=O)c3ccccc3)[C@]3(O)C[C@H](OC(=O)[C@H](O)[C@@H](NC(=O)c4ccccc4)c4ccccc4)C(C)=C1C3(C)C)[C@]1(OC(C)=O)CO[C@@H]1C[C@@H]2O", "note": "[taxol]", "values": [{"measurement": "substrate for Pdr5p mediated multidrug transport", "setting": "Pdr5p", "result": "substrates"}]}
{"smiles": "CC[C@]1(O)C[C@@H]2CN(CCc3c([nH]c4ccccc34)[C@@](C(=O)OC)(c3cc4c(cc3OC)N(C)[C@H]3[C@@](O)(C(=O)OC)[C@H](OC(C)=O)[C@]5(CC)C=CCN6CC[C@]43[C@@H]65)C2)C1", "note": "[vinblastine]", "values": [{"measurement": "substrate for Pdr5p mediated multidrug transport", "setting": "Pdr5p", "result": "substrates"}]}
{"smiles": "CC[C@]1(O)C[C@H]2CN(CCc3c([nH]c4ccccc34)[C@@](C(=O)OC)(c3cc4c(cc3OC)N(C=O)[C@H]3[C@@](O)(C(=O)OC)[C@H](OC(C)=O)[C@]5(CC)C=CCN6CC[C@]43[C@@H]65)C2)C1", "note": "[vincristine]", "values": [{"measurement": "substrate for Pdr5p mediated multidrug transport", "setting": "Pdr5p", "result": "substrates"}]}
